A short description of the data set: Relaxivity of dialyzed liposomal Gd(BME-DTTA). Conditions: dialyzed against saline pH 7.4 with HEPES and Chelex-100. The class given is physicochemical. On the procedure: In this comparative example, the gadolinium complex of N^3,N^6 -bis(2'-myristoyloxyethyl)-1,8-dioxo-triethylenetetraamine-N,N,N',N'-tetraacetic acid [Gd(BME-DTTA)] was prepared and used for cardiac tissue imaging. Specifically, Gd(BME-DTTA) was synthesized and incorporated into liposomes using the procedure described in the Elgavish et al. article entitled "Fatty-acyl iminopolycarboxylates; lipophilic bifunctional contrast agents for NMR imaging", Magn. Reson. Med. 1991; Vol 22; pp. 57-67.
The liposomal Gd(BME-DTTA) was dialyzed at 4° C. for 24 hours against a saline solution (pH 7.4) that contained 0.9 weight % NaCl, 20 mmol/L HEPES, and 0.5 weight % Chelex-100 to remove any weakly bound Gd ions. […] (mmol/L)^-1.

Among the data in US5804164A, “Water-soluble lipophilic contrast agents” (Research Corporation Technologies, Inc., priority 1996, dated 1998) are relaxivity values, retold here.

Consider “gadolinium complex of N^3,N^6 -bis(2'-myristoyloxyethyl)-1,8-dioxo-triethylenetetraamine-N,N,N',N'-tetraacetic acid [Gd(BME-DTTA)]”, for which the relaxivity is on record as 27.1±0.3 s^-1. (mmol/L)^-1.
